The record followed here is ChEMBL document CHEMBL1155013, “Design, synthesis, and evaluation of fused heterocyclic analogs of SCH 58261 as adenosine A2A receptor antagonists” (Bioorg Med Chem Lett, 2008).

In general, half-life refers to how long it takes for the measured level to halve. Read a high half-life as slow decline. By AUC is commonly meant concentration integrated over time. A higher AUC goes with more exposure. As usually defined, the AUC(0-t) is the area under the concentration-time curve up to a stated or last time point. A lower AUC(0-t) goes with low exposure. One may read the bioavailability as dose-corrected exposure relative to a reference, in per cent. The low end stands for poor availability, the high end for good availability. The CL/F is the apparent clearance, not corrected for the fraction that reaches the circulation.

The first data set in a line: Half life in rat at 3 mg/kg, po. The format is ADME, organism-based. Details: dose 3 mg/kg, route oral. The note with it: in vivo.
As for `Cc1cnc2c(c1)CN(CCn1ncc3c1nc(N)n1nc(-c4ccco4)nc31)CC2`, the half-life was 11.3 h.

A further data set can be described thus: AUC in rat at 3 mg/kg, po. In kind it is ADME, organism-based. Also noted: dose 3 mg/kg, route oral. The following applies: plasma.
`Cc1cnc2c(c1)CN(CCn1ncc3c1nc(N)n1nc(-c4ccco4)nc31)CC2` came in with an exposure (AUC) of 7980 ng·h/mL.

Another data set in a line: AUC (0 to 6 hrs) in rat at 3 mg/kg, po. In kind it is ADME, organism-based. Also noted: time < 6 hr, dose 3 mg/kg, route oral. The following applies: plasma.
`COc1ccc2c(c1)CCN(CCn1ncc3c1nc(N)n1nc(-c4ccco4)nc31)C2` returned an area under the curve AUC(0-t) at 6 h of 688 ng·h/mL.
On the same count and under the same terms, the figure for `COc1ccc2c(c1)CN(CCn1ncc3c1nc(N)n1nc(-c4ccco4)nc31)CC2` is 357 ng·h/mL; for `COCCOc1cccc2c1CN(CCn1ncc3c1nc(N)n1nc(-c4ccco4)nc31)C2` it is 215 ng·h/mL.
The same measure, in the same setting: the figure for `COc1ccc2c(c1)CN(CCn1ncc3c1nc(N)n1nc(-c4ccco4)nc31)C2` is 199 ng·h/mL; for `Nc1nc2c(cnn2CCN2CCc3ccccc3C2)c2nc(-c3ccco3)nn12` it is 60 ng·h/mL; for `Nc1nc2c(cnn2CCN2CCc3ncc(C4CC4)cc3C2)c2nc(-c3ccco3)nn12` it is 214 ng·h/mL.
Same read-out and setting: with `Nc1nc2c(cnn2CCN2CCc3ncc(Br)cc3C2)c2nc(-c3ccco3)nn12` the figure was 2020 ng·h/mL.
Take `COCCOc1cnc2c(c1)CN(CCn1ncc3c1nc(N)n1nc(-c4ccco4)nc31)CC2`: the AUC(0-t) at 6 h is 477 ng·h/mL.
The compound `COCCOc1ccc2c(c1)CCN(CCn1ncc3c1nc(N)n1nc(-c4ccco4)nc31)CC2` showed an AUC(0-t) at 6 h of 103 ng·h/mL.
The same measure, in the same setting: the figure for `Nc1nc2c(cnn2CCN2CCc3ncccc3C2)c2nc(-c3ccco3)nn12` is 1790 ng·h/mL; for `Nc1nc2c(cnn2CCN2Cc3ccccc3C2)c2nc(-c3ccco3)nn12` it is 287 ng·h/mL.
In turn, `Nc1nc2c(cnn2CCN2CCc3ccccc3CC2)c2nc(-c3ccco3)nn12` gave an AUC(0-t) at 6 h of 48 ng·h/mL.
Same read-out and setting: the figure for `Nc1nc2c(cnn2CCN2CCc3nc(C(F)(F)F)ccc3C2)c2nc(-c3ccco3)nn12` is 1240 ng·h/mL; for `COCCOc1cccc2c1CN(CCn1ncc3c1nc(N)n1nc(-c4ccco4)nc31)CC2` it is 31 ng·h/mL; for `Nc1nc2c(cnn2CCN2CCc3ncncc3C2)c2nc(-c3ccco3)nn12` it is 467 ng·h/mL.
For `Cc1cnc2c(c1)CN(CCn1ncc3c1nc(N)n1nc(-c4ccco4)nc31)CC2`, the AUC(0-t) at 6 h worked out at 3490 ng·h/mL.

The nature of a further data set: Bioavailability in rat at 3 mg/kg, po. The format is ADME, organism-based. The following applies: in vivo.
With `Cc1cnc2c(c1)CN(CCn1ncc3c1nc(N)n1nc(-c4ccco4)nc31)CC2`, the bioavailability was 71%.

A short description of another data set: Plasma clearance in rat at 3 mg/kg, po. The format is ADME, organism-based. Details: dose 3 mg/kg, route oral.
Conditions: not given
`Cc1cnc2c(c1)CN(CCn1ncc3c1nc(N)n1nc(-c4ccco4)nc31)CC2` displayed an apparent clearance CL/F of 4.7 mL/min/kg.
